In the Kinase Knowledgebase extract (Sharma et al. 2016):

biological target: CDK2 (human) (UniProt P24941); assay: Enzyme Assay

SMILES	Ki
O=c1[nH][nH]c2cc(OC3CCC(Nc4cc(C5CC5)[nH]n4)C3)ccc12 (stereo unspecified)	< 1000 nM
O=c1[nH][nH]c2cc(SCCC(Nc3ccccn3)c3ccccc3)ccc12 (stereo unspecified)	< 1000 nM
Cc1ccc2nc(Nc3ccc4c(=O)[nH][nH]c4c3)nc(Nc3cc(C)[nH]n3)c2n1	< 1000 nM
Cn1cnc(NCCC(=O)Nc2ccc3c(=O)[nH][nH]c3c2)c1	< 1000 nM
Cn1cnc(NC2CCC(Sc3ccc4c(=O)[nH][nH]c4c3)C2)c1 (stereo unspecified)	< 1000 nM
O=c1[nH][nH]c2ccc(-c3nc(Nc4n[nH]c5ccccc45)c4ccccc4n3)c([N+](=O)[O-])c12	< 1000 nM
O=c1[nH][nH]c2cc([C@@H]3C[C@H]3c3nc(Nc4n[nH]c5ccccc45)c4ccccc4n3)ccc12	< 1000 nM
Cn1cnc(NC2CCC(c3ccc4[nH][nH]c(=O)c4c3)C2)c1 (stereo unspecified)	< 1000 nM
O=c1[nH][nH]c2ccc(-c3nc(Nc4cc(-c5ccccc5)[nH]n4)c4ccccc4n3)c(C(F)(F)F)c12	< 1000 nM
Cc1cnc(NC2CCCC(Sc3ccc4c(=O)[nH][nH]c4c3)C2)s1 (stereo unspecified)	< 1000 nM
Cc1cnc(NCCC(=O)Nc2ccc3c(=O)[nH][nH]c3c2)s1	< 1000 nM
NC1CCCCC1c1cc(Nc2n[nH]c3ccccc23)nc(-c2ccc3[nH][nH]c(=O)c3c2C(F)(F)F)n1 (stereo unspecified)	< 1000 nM
Cc1cc(Nc2nc(-c3ccc4[nH][nH]c(=O)c4c3)cc3ccccc23)n[nH]1	< 1000 nM
Cc1cnc(NC2CCC(Sc3ccc4c(=O)[nH][nH]c4c3)C2)s1 (stereo unspecified)	< 1000 nM
O=c1[nH][nH]c2cc(SCCC(Nc3nccnn3)c3ccccc3)ccc12 (stereo unspecified)	< 1000 nM
O=c1[nH][nH]c2ccc(C3COCC(Nc4nccnn4)C3)cc12 (stereo unspecified)	< 1000 nM
O=C(CCOc1ccc2c(=O)[nH][nH]c2c1)Nc1cc(C2CC2)[nH]n1	< 1000 nM
Cc1cc(Nc2nc(COc3ccc4c(=O)[nH][nH]c4c3)nc3c2CNCC3)n[nH]1	< 1000 nM
O=c1[nH][nH]c2ccc(-c3nc4c(c(Nc5n[nH]c6ccc(F)cc56)n3)CCC4)c(C(F)(F)F)c12	< 1000 nM
COc1nc(Nc2ccc3c(=O)[nH][nH]c3c2)nc(Nc2cc(C3CC3)[nH]n2)n1	< 1000 nM
O=c1[nH][nH]c2cc(NC3CCC(Nc4cc(C5CC5)[nH]n4)C3)ccc12 (stereo unspecified)	< 1000 nM
Cc1cc(Nc2cc(-c3ccco3)[nH]n2)nc(COc2ccc3c(=O)[nH][nH]c3c2)n1	< 1000 nM
Cn1cnc(NC2CCCC2COc2ccc3c(=O)[nH][nH]c3c2)c1 (stereo unspecified)	< 1000 nM
Cn1cnc(NCCCNc2ccc3c(=O)[nH][nH]c3c2)c1	< 1000 nM

SMILES	Ki
O=c1[nH][nH]c2cc(Nc3nc(Nc4cc(C5CC5)[nH]n4)c4cc(N5CCOCC5)ccc4n3)ccc12	< 1000 nM
Nc1c(Nc2ccc3c(=O)[nH][nH]c3c2)ncnc1Nc1cc(C2CC2)[nH]n1	< 1000 nM
Cc1cnc(NC2CCCC(SCc3ccc4c(=O)[nH][nH]c4c3)C2)s1 (stereo unspecified)	< 1000 nM
O=c1[nH][nH]c2cc(NCC3CCCC3Nc3cc(C4CC4)[nH]n3)ccc12 (stereo unspecified)	< 1000 nM
O=c1[nH][nH]c2cc(COc3cc(Nc4n[nH]c5ccccc45)ccn3)ccc12	< 1000 nM
CCc1cccc2c(Nc3cc(C)[nH]n3)nc(-c3ccc4[nH][nH]c(=O)c4c3OC(F)(F)F)nc12	< 1000 nM
O=C(CCNc1ccc2c(=O)[nH][nH]c2c1)Nc1cc(C2CC2)[nH]n1	< 1000 nM
O=c1[nH][nH]c2ccc(-c3nc4c(c(Nc5n[nH]c(C6CC6)n5)n3)CCCCC4)c(C(F)(F)F)c12	< 1000 nM
O=c1[nH][nH]c2cc(Oc3cccc(Nc4cc(C5CC5)[nH]n4)n3)ccc12	< 1000 nM
Cc1cc(Nc2cc(COc3ccc4c(=O)[nH][nH]c4c3)nc3c2CCCC3)n[nH]1	< 1000 nM
Cc1cnc(NC2CCC(c3ccc4[nH][nH]c(=O)c4c3)C2)s1 (stereo unspecified)	< 1000 nM
O=c1[nH][nH]c2ccc(-c3nc4c(c(Nc5n[nH]c6c(F)cccc56)n3)CCCCCC4)c(C(F)(F)F)c12	< 1000 nM
O=c1[nH][nH]c2cc(OCCONc3cc(C4CC4)[nH]n3)ccc12	< 1000 nM
Cc1cnc(NC(=O)CCSc2ccc3c(=O)[nH][nH]c3c2)s1	< 1000 nM
O=c1[nH][nH]c2cc(SCCONc3nccnn3)ccc12	< 1000 nM
Cc1cc(Nc2nc(Nc3ccc4c(=O)[nH][nH]c4c3)nc(C)c2C)n[nH]1	< 1000 nM
O=c1[nH][nH]c2cc(Nc3nc(Nc4cc(C5CC5)[nH]n4)c4cc(-c5ccccc5)ccc4n3)ccc12	< 1000 nM
O=c1[nH][nH]c2cc(CCCC(Nc3nccnn3)c3ccccc3)ccc12 (stereo unspecified)	< 1000 nM
CCCCc1cc(Nc2nncc(-c3ccc4[nH][nH]c(=O)c4c3)n2)n[nH]1	< 1000 nM
O=c1[nH][nH]c2cc(SCCCNc3cc(C4CC4)[nH]n3)ccc12	< 1000 nM
Cn1cnc(NC(=O)CCSc2ccc3c(=O)[nH][nH]c3c2)c1	< 1000 nM
C#Cc1c(-c2nc(Nc3n[nH]c4ccc(F)cc34)c3ccccc3n2)ccc2[nH][nH]c(=O)c12	< 1000 nM
Cc1cc(Nc2nc(Nc3ccc4c(=O)[nH][nH]c4c3)nc3c2CN(Cc2ccccc2)CC3)n[nH]1	< 1000 nM
Cn1cnc(Nc2cccc(Nc3ccc4c(=O)[nH][nH]c4c3)c2)c1	< 1000 nM

SMILES	Ki
O=C(CC(=O)Oc1ccc2c(=O)[nH][nH]c2c1)Nc1nccnn1	< 1000 nM
Cc1cc(Nc2nc(-c3cc4c(=O)[nH][nH]c4cc3Cl)cc3ccccc23)n[nH]1	< 1000 nM
Cc1cnc(CC2CCCC2CCc2ccc3c(=O)[nH][nH]c3c2)s1 (stereo unspecified)	< 1000 nM
O=c1[nH][nH]c2cc(C(F)(F)F)c(-c3nc4c(c(Nc5n[nH]c6ccc(F)cc56)n3)OCCC4)cc12	< 1000 nM
Cc1cc(Nc2nc(COc3ccc4c(=O)[nH][nH]c4c3)nc3c2CN(Cc2ccccc2)CC3)n[nH]1	< 1000 nM
Cc1cc(Nc2cc(Nc3ccc4c(=O)[nH][nH]c4c3)nc3ccccc23)n[nH]1	< 1000 nM
O=c1[nH][nH]c2cc(Sc3cc(Nc4cc(C5CC5)[nH]n4)ccn3)ccc12	< 1000 nM
O=c1[nH][nH]c2ccc(CNc3nc(Nc4cc(C5CC5)[nH]n4)cc(-c4ccccc4)n3)cc12	< 1000 nM
O=c1[nH][nH]c2ccc(-c3nc(Nc4n[nH]c5cccc(Cl)c45)c4ccccc4n3)c(C(F)(F)F)c12	< 1000 nM
O=c1[nH][nH]c2cc(Sc3cc4ccccc4c(Nc4n[nH]c5ccccc45)n3)ccc12	< 1000 nM
O=c1[nH][nH]c2ccc(-c3nc(Nc4n[nH]c5c4CCCC5)c4ccccc4n3)c(C(F)(F)F)c12	< 1000 nM
O=c1[nH][nH]c2cc(Nc3nc(Nc4cc(C5CC5)[nH]n4)ccc3[N+](=O)[O-])ccc12	< 1000 nM
O=c1[nH][nH]c2ccc(-c3nc(Nc4n[nH]cc4-c4ccccc4)c4ccccc4n3)c(C(F)(F)F)c12	< 1000 nM
Cn1cnc(NC2COCC(Sc3ccc4c(=O)[nH][nH]c4c3)C2)c1 (stereo unspecified)	< 1000 nM
O=c1[nH][nH]c2cc(Oc3cc(Nc4cc(C5CC5)[nH]n4)ccn3)ccc12	< 1000 nM
O=c1[nH][nH]c2cc(SC(CCNc3nccnn3)Cc3ccccc3)ccc12 (stereo unspecified)	< 1000 nM
Cc1cc(Nc2nc(CCc3ccc4[nH][nH]c(=O)c4c3)nc3c2CCCC3)n[nH]1	< 1000 nM
Cn1cnc(NC(CCOc2ccc3c(=O)[nH][nH]c3c2)c2ccccc2)c1 (stereo unspecified)	< 1000 nM
Cc1cnc(NCCC(Cc2ccccc2)Nc2ccc3c(=O)[nH][nH]c3c2)s1 (stereo unspecified)	< 1000 nM
N#Cc1cc(Nc2n[nH]c3ccccc23)nc(-c2ccc3[nH][nH]c(=O)c3c2C(F)(F)F)n1	< 1000 nM
O=c1[nH][nH]c2cc(C(F)(F)F)c(-c3cc4cccnc4c(Nc4n[nH]c5ccccc45)n3)cc12	< 1000 nM
Cc1cc(Nc2nc(Nc3ccc4c(=O)[nH][nH]c4c3)nc3c2CCCCC3)n[nH]1	< 1000 nM
Cc1cc(Nc2nc(Nc3ccc4c(=O)[nH][nH]c4c3)nc3ccc(-c4ccccc4Cl)cc23)n[nH]1	< 1000 nM
O=c1[nH][nH]c2cc(C3CC3C3COCC(Nc4nccnn4)C3)ccc12 (stereo unspecified)	< 1000 nM

SMILES	Ki
O=c1[nH][nH]c2cc(Nc3nc(Nc4cc(C5CC5)[nH]n4)c4cc(-c5ccccc5Cl)ccc4n3)ccc12	< 1000 nM
O=c1[nH][nH]c2ccc(-c3nc(Nc4n[nH]c5c(F)cc(F)cc45)c4ccncc4n3)c(Cl)c12	< 1000 nM
O=c1[nH][nH]c2cc(NC3CCCC(Nc4cc(C5CC5)[nH]n4)C3)ccc12 (stereo unspecified)	< 1000 nM
Cc1cc(Nc2ccnc(Oc3ccc4c(=O)[nH][nH]c4c3)c2)n[nH]1	< 1000 nM
Cc1cc(Nc2nc(-c3ccc4[nH][nH]c(=O)c4c3)nc3cnccc23)n[nH]1	< 1000 nM
O=c1[nH][nH]c2cc(Sc3cc4ccccc4c(Nc4cc(C5CC5)[nH]n4)n3)ccc12	< 1000 nM
O=C(CCNc1ccccn1)Cc1ccc2c(=O)[nH][nH]c2c1	< 1000 nM
Cc1cc(Nc2ccnc(Sc3ccc4c(=O)[nH][nH]c4c3)c2)n[nH]1	< 1000 nM
O=c1[nH][nH]c2cc(OCCC(Nc3nccnn3)c3ccccc3)ccc12 (stereo unspecified)	< 1000 nM
Cc1cc(Nc2cc(N3CCN(C)CC3)nc(Sc3ccc4c(=O)[nH][nH]c4c3)n2)n[nH]1	< 1000 nM
O=c1[nH][nH]c2ccc(CNc3cc(Nc4cc(C5CC5)[nH]n4)c4ccccc4n3)cc12	< 1000 nM
Cc1cc(Nc2nc(-c3ccc4[nH][nH]c(=O)c4c3)nc3ccsc23)n[nH]1	< 1000 nM
O=c1[nH][nH]c2cc(SC3CCC(Nc4nccnn4)C3)ccc12 (stereo unspecified)	< 1000 nM
Cc1cc(Nc2cc(-c3cc4c(=O)[nH][nH]c4cc3C(F)(F)F)nc3cnccc23)n[nH]1	< 1000 nM
Cc1cnc(Oc2ccc3c(=O)[nH][nH]c3c2)nc1Nc1cc(C2CC2)[nH]n1	< 1000 nM
O=c1[nH][nH]c2cc(Sc3nc(Nc4n[nH]c5ccccc45)c4ccccc4n3)ccc12	< 1000 nM
O=c1[nH][nH]c2cc(C(F)(F)F)c(-c3cc(Nc4n[nH]c5ccccc45)c4cccnc4n3)cc12	< 1000 nM
O=c1[nH][nH]c2cc([C@@H]3C[C@H]3c3nc(Nc4n[nH]c5ccc(F)cc45)c4ccccc4n3)ccc12	< 1000 nM
O=c1[nH][nH]c2cc(C(F)(F)F)c(-c3cc4cccnc4c(Nc4nc[nH]n4)n3)cc12	< 1000 nM
O=c1[nH][nH]c2cc(SCCC(Nc3cc(C4CC4)[nH]n3)c3ccccc3)ccc12 (stereo unspecified)	< 1000 nM
O=c1[nH][nH]c2ccc(-c3nnc(C4CC4)c(Nc4n[nH]c5ccccc45)n3)c(C(F)(F)F)c12	< 1000 nM
Cc1cc(Nc2nc(C(C)(C)c3ccc4c(=O)[nH][nH]c4c3)nc3c2CCCCC3)n[nH]1	< 1000 nM
Cc1cccc2c(Nc3cc(-c4ccco4)[nH]n3)nc(-c3ccc4[nH][nH]c(=O)c4c3OC(F)(F)F)nc12	< 1000 nM
O=c1[nH][nH]c2cc(O)c(-c3nc(Nc4n[nH]c5c(F)cc(F)cc45)c4ccccc4n3)cc12	< 1000 nM
